The values that follow come from PMC7944860 (Antiviral Research, 2021).

As usually defined, the CC50 is the concentration giving 50% cytotoxicity. In general, EC50 refers to the concentration needed to bring the measured effect to its halfway point.

Where “and” joins values, the source holds several entries; their conditions need not be identical. Equal entries are not always repeated. Where two headings read alike, the source gives them in different places. Bounds are passed on as bounds.

Data set [1] is described as follows: Cytotoxicity assay. Conditions: human, Huh7-hACE2 cells.
Data set [2] can be described thus: Cell viability assay. To be noted: human, MRC-5 cells.
Data set [3] concerns SARS-CoV2. In words: microbe, parasite or virus in culture. It is filed as cell-based. To be noted: for EC50: read-out: EC50 (μM) (mean ± SD).
In data set [4] the test system is HCoV-OC43. The data set can be described thus: HCoV-OC43 focus reduction assay on MRC-5 cells. It is filed as cell-based. To be noted: for selectivity index: HCoV-OC43, ratio of CC50 and EC50.
Data set [5] relates to MRC-5 cells. The data set can be described thus: Cell viability assay. To be noted: read-out: CC50 (μM) (mean ± SD), 20 h, MTS.
Data set [6] has as its system SARS-CoV2. Conditions: 2020, cited from earlier work; for increase of remdesivir inhibitory activity (synergy): ref Bafna et al.
Data set [7] concerns HCoV-OC43. In words: HCoV-OC43 virus yield reduction assay on MRC-5 cells. It is filed as cell-based. To be noted: for EC50: Betacoronavirus 1, OC43, MRC5, 24 h, read-out: EC50 (μM) (mean ± SD), virus yield reduction; for Virus titer reduction Log10 (mean ± SD) at highest tested dose: FFU/mL vs infected untreated control.
Data set [8] deals with SARS-CoV2. In words: microbe, parasite or virus in culture. It is filed as cell-based. To be noted: for EC50: read-out: EC50 (μM) (mean ± SD), virus yield reduction.
For data set [9], the system named is Huh7-hACE2 cells. In words: Cytotoxicity assay. To be noted: read-out: CC50 (μM) (mean ± SD), 20 h, Alamar Blue. (Resazurin is reduced to fluorescent resorufin, in cell work by metabolically active cells.)
[10] abbreviates: Severe acute respiratory syndrome coronavirus 2, 20 h.
Where [11] appears, read: Betacoronavirus 1, OC43, MRC5, 20 h, read-out: EC50 (μM) (mean ± SD), HCoV-OC43, MRC-5 cells, 20 h, focus reduction.
The mark [12] stands for this setting: read-out: EC50 (μM) (mean ± SD), HCoV-OC43, MRC-5 cells, 20 h, focus reduction.
The mark [13] stands for this setting: HCoV-OC43, MRC-5 cells, 20 h, focus reduction.

As for `CC1(C)CCC(CN2CCN(c3ccc(C(=O)NS(=O)(=O)c4ccc(NCC5CCOCC5)c([N+](=O)[O-])c4)c(Oc4cnc5[nH]ccc5c4)c3)CC2)=C(c2ccc(Cl)cc2)C1` [Venetoclax], the results for the cytotoxic concentration (CC50) at 20 h in data set [1] and in [2] were 22 ± 6.2 µM and 10.6 ± 1.5 µM, respectively. Moreover, the EC50 is around 6.2 µM in [3] (setting [10]) and 3.5 ± 0.5 µM in [4] (setting [11]).

`Cn1nnc(-c2ccc(-c3ccc(N4C[C@H](COP(=O)(O)O)OC4=O)cc3F)cn2)n1` [Tedizolid, Tedizolid phosphate]: in [5], the CC50 is above 1000 µM. Also, the 50% effective concentration (EC50) in data set [4] (setting [12]) was 94 ± 25 µM.

As to `C[C@@H]1C/C=C/C=C/C=C/C=C/[C@H](O[C@@H]2O[C@H](C)[C@@H](O)[C@H](N)[C@@H]2O)C[C@@H]2O[C@](O)(C[C@@H](O)C[C@H]3O[C@@H]3/C=C/C(=O)O1)C[C@H](O)[C@H]2C(=O)O` [Natamycin], the figures for the CC50 at 20 h in data set [1] and in data set [2] were 35.9 ± 13.4 µM and 47.3 ± 4.4 µM, respectively. Further, in [3] (setting [10]), the concentration giving a half-maximal response (EC50) was 24.3 ± 4.4 µM. In [4] (setting [13]), the “EC50 (μM) (mean ± SD)” value was “no antiviral activity”.

Regarding `Cc1ccc(C(=O)Nc2ccc(S(=O)(=O)O)c3cc(S(=O)(=O)O)cc(S(=O)(=O)O)c23)cc1NC(=O)c1cccc(NC(=O)Nc2cccc(C(=O)Nc3cc(C(=O)Nc4ccc(S(=O)(=O)O)c5cc(S(=O)(=O)O)cc(S(=O)(=O)O)c45)ccc3C)c2)c1` [Suramin], the CC50 at 20 h is above 100 µM in [1] and above 1000 µM in data set [2]. In addition, the results for the half-maximal effective concentration (EC50) in data set [3] (setting [10]) and in data set [4] (setting [11]) were 64 ± 6.6 µM and 19.3 ± 4.3 µM, respectively.

Molecule `CCN1CCN(C(=O)N[C@@H](C(=O)N[C@@H]2C(=O)N3C(C(=O)O)=C(CSc4nnnn4C)CS[C@H]23)c2ccc(O)cc2)C(=O)C1=O` [Cefoperazone] displayed a CC50 at 20 h in data set [2] above 1000 µM. Moreover, in [4] (setting [13]), the “EC50 (μM) (mean ± SD)” value is “no antiviral activity”.

As to `CC1(C)[C@@H](OC(=O)CCC(=O)O)CC[C@]2(C)[C@H]3C(=O)C=C4[C@@H]5C[C@@](C)(C(=O)O)CC[C@]5(C)CC[C@@]4(C)[C@]3(C)CC[C@@H]12` [Carbenoxolone], the CC50 at 20 h in data set [1] is above 100 µM; in [2] it was 251 ± 17 µM. The results for the 50% effective concentration (EC50) in [3] (setting [10]) and in data set [4] (setting [11]) were 66 ± 11 µM and 45.7 ± 8 µM, respectively.

Regarding `CCc1c2c(nc3ccc(OC(=O)N4CCC(N5CCCCC5)CC4)cc13)-c1cc3c(c(=O)n1C2)COC(=O)[C@]3(O)CC` [Irinotecan], the 50% cytotoxic concentration (CC50) at 20 h in data set [1] was above 100 µM; in data set [2] it was 63.4 ± 11.4 µM. Besides, in data set [3] (setting [10]), the concentration for a half-maximal effect (EC50) stood at 85.2 ± 17 µM. The “EC50 (μM) (mean ± SD)” value in data set [4] (setting [13]) is recorded as “no antiviral activity”.

As to `COc1cc([C@@H]2c3cc4c(cc3[C@@H](O[C@@H]3O[C@@H]5CO[C@@H](c6cccs6)O[C@H]5[C@H](O)[C@H]3O)[C@H]3COC(=O)[C@H]23)OCO4)cc(OC)c1O` [Teniposide], the cytotoxic concentration (CC50) at 20 h in [1] was above 100 µM; in data set [2], 701 ± 281 µM. In addition, the 50% effective concentration (EC50) in [3] (setting [10]) was found to be 97 ± 0.7 µM. Moreover, the “EC50 (μM) (mean ± SD)” value in data set [4] (setting [13]) is reported as “no antiviral activity”.

For `COc1ccc2c(O[C@@H]3C[C@H]4C(=O)N[C@]5(C(=O)NS(=O)(=O)C6CC6)C[C@H]5/C=C\CCCCN(C)C(=O)[C@@H]4C3)cc(-c3nc(C(C)C)cs3)nc2c1C` [Simeprevir], the values for the CC50 at 20 h in data set [1] and in data set [2] were 47.5 ± 41 µM and 11.1 ± 2.3 µM, respectively. Moreover, the “increase of remdesivir inhibitory activity (synergy)” value in [6] is at most 10 fold. The concentration giving a half-maximal response (EC50) was around 9.3 µM in data set [3] (setting [10]) and around 2.1 µM in data set [4] (setting [11]).

In the case of `O=C1[C@@H]2[C@H]3CC[C@H](C3)[C@@H]2C(=O)N1C[C@@H]1CCCC[C@H]1CN1CCN(c2nsc3ccccc23)CC1` [Lurasidone], the EC50 in data set [7] came to 8.3 ± 2 µM; in data set [8] (setting [10]), 6.4 ± 3.9 µM; in data set [3] (setting [10]), 18 ± 4.6 µM; in data set [4] (setting [11]), 1.1 ± 0.4 µM. Besides, the “Virus titer reduction Log10 (mean ± SD) at highest tested dose” value (“Virus titer reduction Log10 (mean ± SD)” for short) in data set [7] (HCoV-OC43, 100 μM) was 6.3 ± 1.5 (100 μM) Log10; in data set [8], 1.3 and 1.3 ± 0.3 (100 μM) Log10. Besides, the CC50 at 20 h in [1] and in [2] was above 1000 µM throughout. The selectivity index entry in [4] is “higher than 600”.

Turning to `COC(=O)N[C@H](C(=O)N1CCC[C@H]1c1nc(-c2ccc3c(c2)O[C@@H](c2ccccc2)n2c-3cc3cc(-c4c[nH]c([C@@H]5CCCN5C(=O)[C@@H](NC(=O)OC)C(C)C)n4)ccc32)c[nH]1)C(C)C` [Elbasvir], the concentration for a half-maximal effect (EC50) was 1.3 ± 0.4 µM in [7], 14.4 ± 7.9 µM in data set [8] (setting [10]), around 23 µM in data set [3] (setting [10]) and around 1.5 µM in data set [4] (setting [11]). Further, the “Virus titer reduction Log10 (mean ± SD)” value in data set [7] (HCoV-OC43, 100 μM) was 1.4 ± 0.2 (100 μM) Log10; in data set [8], 0.6 and 0.6 ± 0.2 (100 μM) Log10. For the same molecule, the 50% cytotoxic concentration (CC50) at 20 h in data set [1] and in data set [2] was above 1000 µM throughout. Further, in data set [6] (in combination with grazoprevir (Zepatier), ref Nguyenla et al.), the “increase of remdesivir's apparent potency in preventing SARS-CoV2 replication” value was 25 fold. Besides, in data set [4], the selectivity index entry is recorded as “higher than 600”.

Regarding `CCc1cc2c(cc1N1CCC(N3CCOCC3)CC1)C(C)(C)c1[nH]c3cc(C#N)ccc3c1C2=O` [Alectinib], the EC50 was found to be 1 ± 0.1 µM in data set [7] and 0.6 ± 0.2 µM in data set [4] (setting [11]). Besides, the “Virus titer reduction Log10 (mean ± SD)” value in [7] (HCoV-OC43, 33 μM) was 2.9 ± 0.1 (33 μM) Log10. Further, the 50% cytotoxic concentration (CC50) at 20 h in [2] was above 1000 µM. Moreover, the “EC50 (μM) (mean ± SD)” value in data set [3] is reported as “no activity”.

Take `C=C[C@@H]1C[C@]1(NC(=O)[C@@H]1C[C@@H]2CN1C(=O)[C@H](C(C)(C)C)NC(=O)O[C@@H]1C[C@H]1CCCCCc1nc3ccc(OC)cc3nc1O2)C(=O)NS(=O)(=O)C1CC1.O` [Grazoprevir]: the results for the 50% cytotoxic concentration (CC50) in [9] and in data set [5] were 118 ± 6 µM and 70 ± 12.8 µM, respectively. The “increase of remdesivir inhibitory activity (synergy)” value in data set [6] is given as at most 10 fold. Further, the “Virus titer reduction Log10 (mean ± SD)” value in data set [8] was 3.9 and 3.9 ± 0.07 (100 μM) Log10. In addition, the EC50 in [8] was 3.3 ± 0.9 µM; in data set [3] it was ~16 µM and 16 µM; in data set [4] (setting [12]) it was 11 ± 1.1 µM.

As for `Cc1ccc(C(=O)Nc2ccc(CN3CCN(C)CC3)c(C(F)(F)F)c2)cc1C#Cc1cnc2cccnn12` [Ponatinib], the half-maximal cytotoxic concentration (CC50) at 20 h in data set [1] stood at 8.7 ± 3.8 µM; in data set [2], 3.1 ± 0.5 µM. The EC50 in data set [3] (setting [10]) is 1.1 ± 0.2 µM; in data set [4] (setting [11]), 0.1 ± 0.05 µM.
